The record followed here is patent publication US11491132B2, “Methods for treating thrombocytopenia” (Enzychem Lifesciences Corporation, priority 2014, dated 2022).

One data set has as its target T1, STAT6 (Homo sapiens, UniProt P42226).
T1 sequence (P42226 1-847): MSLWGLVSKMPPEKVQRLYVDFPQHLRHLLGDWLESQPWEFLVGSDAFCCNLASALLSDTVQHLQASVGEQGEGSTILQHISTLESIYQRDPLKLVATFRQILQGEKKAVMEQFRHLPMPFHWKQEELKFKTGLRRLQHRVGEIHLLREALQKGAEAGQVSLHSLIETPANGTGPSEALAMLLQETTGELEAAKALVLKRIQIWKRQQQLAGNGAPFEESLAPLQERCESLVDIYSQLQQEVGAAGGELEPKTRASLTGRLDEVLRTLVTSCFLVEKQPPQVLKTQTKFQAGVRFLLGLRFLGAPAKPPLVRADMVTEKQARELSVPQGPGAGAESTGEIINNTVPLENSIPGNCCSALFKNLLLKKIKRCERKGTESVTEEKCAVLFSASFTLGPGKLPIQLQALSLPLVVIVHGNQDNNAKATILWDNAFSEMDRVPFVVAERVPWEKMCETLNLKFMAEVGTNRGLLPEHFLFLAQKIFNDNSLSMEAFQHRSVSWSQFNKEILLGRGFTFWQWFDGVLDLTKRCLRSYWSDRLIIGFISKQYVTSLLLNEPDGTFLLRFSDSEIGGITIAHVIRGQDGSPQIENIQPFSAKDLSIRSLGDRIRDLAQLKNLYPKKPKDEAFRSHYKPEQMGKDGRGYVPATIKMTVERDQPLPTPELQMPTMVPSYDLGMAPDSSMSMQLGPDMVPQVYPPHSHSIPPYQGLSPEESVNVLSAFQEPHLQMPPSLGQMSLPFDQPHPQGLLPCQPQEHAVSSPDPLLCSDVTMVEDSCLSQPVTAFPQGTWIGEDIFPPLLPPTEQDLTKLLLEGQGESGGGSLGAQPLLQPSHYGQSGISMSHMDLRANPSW
The data set can be described thus: Dephosphorylation of STAT6 in PLAG treated cells, western blot. In kind it is cell-based. On the set-up: endogenous in cells; host or cells: U937, A549, Jurkat. Conditions: U937, Jurkat and A549 cells; PLAG 0.01 to 10 μg/ml; 15 min after 10 ng/ml IL-4. The protocol: Dephosphorylation of STAT6 is examined using anti-phosphorylated STAT6 in U937, A549, and Jurkat cell lysates treated with PLAG concentration from 0.01 to 10 μg/ml. Phosphorylation of STAT6 is induced by treatment with 10 ng/ml of IL-4. Dephosphorylation of STAT1 is examined in the U937 cell lysate treated with PLAG (0.01 to 10 μg/ml). Phosphorylation of STAT1 is induced by 10 ng of IFN-γ treatment. Dephosphorylation of STAT1 and STAT6 is examined at 15 min after stimulation with IFN-γ and IL-4 respectively, in the PLAG pretreated cells. […] The transcriptional activity of STAT6 is decreased by the dephosphorylation of STAT6. […] No effect of PLAG on STAT1 phosphorylation is observed.

In data set [1] the test system is platelets and neutrophils. The data set can be described thus: Pilot study: thrombocytopenia and neutropenia in pancreatic cancer patients receiving chemotherapy. Conditions: 16 patients. In kind it is in vivo, human. The protocol: PLAG is administered to sixteen pancreatic cancer patients after chemotherapy. The subjects of this study are unoperable pancreatic cancer patients with ECOG (Eastern Cooperative Oncology Group) performance status of “0” or “1”, i.e. patients in good physical condition without much pain, able to enjoy almost normal lifestyle and thus, eligible for anticancer treatment for at least 2 months. The pancreatic cancer patients are “locally advanced” patients having tumor metastasis to the major vessels around pancreas or “Distant metastasis” patients with distant metastasis to liver, lung, bone, etc. ECOG performance status “0” refers to a patient who is asymptomatic, fully active, able to carry on all predisease activities without restriction with no pain and no problem for normal lifestyle, while “1” refers to a patient who is symptomatic but completely ambulatory with mile pain and a little problem for normal life. Anticancer (Gemcitabine and Erlotinib combo treatment) Regimen is as follows: 1,000 mg of Gemcitabine is injected once a week for three weeks (Day 1, Day 8, Day 15), and is not injected in the next one week (Day 22). Therefore, 1 cycle of anticancer treatment requires 1 month. 100 mg of Erlotinib (Tarceva) is administered once per day everyday orally. 1,000 mg of PLAG is also administered once per day orally, starting from 3 days before anticancer treatment until the last chemotherapy treatment. The PLAG treatment group and control group both completed two cycles of anticancer treatment. There is no difference among the control and PALG treatment groups in the amount or schedule of anticancer treatment.

A further data set deals with HepG2 cells. The data set can be described thus: WST-1 cell viability assay in HepG2 cells. Type of data set: cell-based. To be noted: PLAG 1 to 100 μg/ml. The protocol: The incubated HepG2 cell lines are treated with PLAG (1˜100 μg/ml), followed by IL-4 and TNF-α, reacted for 1 hour, incubated for 18 hours at 37° C. and the supernatant isolated. Quantitation of the amount of C3 in the cellular culture medium (supernatant) from HepG2 cells is performed by ELISA using a commercially available monoclonal antibody (mAb, R&D Systems) and the manufacture's protocol; the results are presented in FIG. 3. C3 is expressed spontaneously under in vitro culture condition using 10% FCS added to HepG2 cells incubated for 12 hr. The cells are treated with different doses of PLAG from 1 to 100 μg/ml (Panel A, Panel B) or 10 and 100 μg/ml of S6I (Panel C), reacted with IL-4 and TNF-α for 1 hr and then incubated for 18 hr at 37° C. Cellular viability is confirmed using the WST-1 assay (Panel A).
A general note: Formazan colour is commonly taken as a measure of viable cells.

The test system of the next data set is platelets. The data set can be described thus: Lipopolysaccharide-induced platelet reduction in mice. Type of data set: in vivo. To be noted: LPS 1 mg/kg, PLAG 1 mg/kg, 15 hours after PLAG treatment. The method, then:
Mice are injected with 100 mg/kg phenylhydrazine (PHZ), i.p., to induce anemia and reduction of platelets. 5 mg/kg PLAG is administered to the mice orally and blood samples are taken at 3 and 13 days after. In addition, for comparison, normal mice which are not treated with phenylhydrazine are prepared as a normal group, and mice treated with PHZ and olive oil instead of PLAG are prepared as a control group. The blood samples taken from the mice are treated with 0.5 ml EDTA (Minicollect tube, Greiner bio-one, Austria) and concentration of platelet is measured using automated blood sample analyzer BC-6800 (Mindray, Shenzhen, China) by number of platelet per […] (k: 1,000).
The experiment is repeated using Tamoxifen (Tam), an anticancer agent, injected at the amount of 100 mg/kg, or lipopolysaccharide (LPS), an inflammation inducer, at the amount of 1 mg/kg to induce platelet reduction. Platelet concentration is measured 15 hours after PLAG treatment. For comparison, olive oil and PBS are used instead of PLAG as controls, respectively for the Tamoxifen and lipopolysaccharide experiment.

The mark [2] stands for this setting: Gemcitabine and Erlotinib, PLAG 1,000 mg once per day orally, two cycles.

For the molecule `CCCCC/C=C\C/C=C\CCCCCCCC(=O)OC(COC(C)=O)COC(=O)CCCCCCCCCCCCCCC` (racemic) [PLAG, 1-palmitoyl-2-linoleoyl-3-acetylglycerol], the “IL-4 treatment induced STAT6 phosphorylation” value at STAT6 is reported as “inhibited with increasing PLAG concentrations”. In data set [1] (setting [2]), the “patients whose platelet number dropped to less than 25,000/μl” value was “no patient” and the “patients with platelet number decrease to less than 50,000/μl” value is “no patient”. In data set [1] (PLAG treatment group), the “patients with >70% decrease in platelet count” value is reported as “none”; the “patients with neutrophil decrease to less than 500/μl” value was “none”; the “patients with neutrophil number decrease to less than 75%” value is “none and not one patient”. Besides, in the data set on HepG2 cells, the “cellular viability (WST-1)” value was “does not affect the cellular propagation and death”. Besides, the “Platelet Conc.” value in the data set on platelets is reported as 450.00 k/ul.
